Each block holds one molecule with its values, some of them ahead of it.
Experiments:
[1] = test system: MIA-PaCa-2; set-up: method as in Watabe et al. [2020]; conditions: MIA-PaCa-2 tumor model, read from graphs; ref Watabe et al. [2020]; cited from earlier work
[2] = test system: HT-1080 FAP; set-up: method as in Lindner et al. [2018]; conditions: HT-1080 FAP tumor model, read from graphs; ref Lindner et al. [2018]; cited from earlier work
[3] = test system: PANC-1; set-up: method as in Watabe et al. [2020]; conditions: read from graphs, ref Watabe et al. [2020], cited from earlier work
[4] = Stability studies of gallium-68 complexes in media (EtOH, human serum, saline, PBS); type: physicochemical; conditions: different media (summary statement)
Description: Gallium-68 stability studies against transmetallation (Fe, Cu, Ca, Mg), transchelation (EDTA, DTPA) as well as in HS, EtOH and saline (0.9% isotone NaCl-solution) were performed. 50 μl of the [^68Ga]Ga-DOTA.SA.FAPi labeling solution with > 95% radiochemical purity were added to 1 mL of the respective media. The measured time points for gallium-68 were 15, 30, 45, 60, 90, 120 min. HS (human male AB plasma, USA origin) was bought from Sigma Aldrich, PBS was purchased from Sigma Aldrich and 0.9% saline from B. Braun Melsungen AG (Melsungen, Germany).

[5] = target: T1, human FAP (Homo sapiens, UniProt Q12884); experiment: FAP inhibition assay (IC50, Z-Gly-Pro-AMC substrate); type: biochemical
T1 construct: the human secretion signal was replaced with the HoneyBee mellitin secretion signal; HoneyBee mellitin secretion signal (replaces the native signal-anchor) (N); C-terminal tag of the BaculoDirect C-term kit (C); made in house; host or cells: Sf9 insect cells (baculovirus); purified from the supernatant
T1 sequence (Q12884 26-760 limits assumed): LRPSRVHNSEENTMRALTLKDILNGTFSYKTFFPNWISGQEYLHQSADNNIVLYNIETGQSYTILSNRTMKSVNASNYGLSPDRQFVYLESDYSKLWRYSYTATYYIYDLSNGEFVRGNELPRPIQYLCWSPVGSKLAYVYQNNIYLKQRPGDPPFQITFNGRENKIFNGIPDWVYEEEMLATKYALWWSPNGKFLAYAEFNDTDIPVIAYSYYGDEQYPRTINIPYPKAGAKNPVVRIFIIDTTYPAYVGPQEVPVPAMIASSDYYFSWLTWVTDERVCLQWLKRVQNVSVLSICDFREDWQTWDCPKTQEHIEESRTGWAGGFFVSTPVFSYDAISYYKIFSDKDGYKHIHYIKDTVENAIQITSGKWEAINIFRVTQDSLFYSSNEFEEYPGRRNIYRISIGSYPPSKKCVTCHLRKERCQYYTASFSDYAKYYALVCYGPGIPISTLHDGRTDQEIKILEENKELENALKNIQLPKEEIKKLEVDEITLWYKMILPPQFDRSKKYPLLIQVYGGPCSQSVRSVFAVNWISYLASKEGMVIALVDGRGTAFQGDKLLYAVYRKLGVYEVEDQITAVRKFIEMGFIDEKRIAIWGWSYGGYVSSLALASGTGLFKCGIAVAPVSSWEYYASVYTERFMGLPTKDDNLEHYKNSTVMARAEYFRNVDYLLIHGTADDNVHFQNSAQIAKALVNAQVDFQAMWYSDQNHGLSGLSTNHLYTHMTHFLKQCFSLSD
Source text: (§1) Enzymes: A gateway-entry clone for human FAP was purchased from Dharmacon (Accession number DQ891423) and the human secretion signal was replaced with the HoneyBee mellitin secretion signal. For transfection and expression of FAP in Sf9 insect cells, the C-terminal BaculoDirect kit from LifeTechnologies was used. The enzyme was purified from the supernatant of the insect cells using immobilized Ni-chelating chromatography (GE healthcare, Diegem, Belgium), followed by anion-exchange chromatography using a 1 mL HiTrap Q (GE healthcare, Diegem, Belgium). Human recombinant PREP was expressed in BL21(DE3) cells and purified using immobilized Co-chelating chromatography (GE healthcare) followed by anion-exchange chromatography on a 1 ml Mono Q column (GE healthcare).
(§2) Eight concentrations of inhibitors were tested. The final DMSO concentration was kept constant during the experiment to exclude any solvent effects. Inhibitors were pre-incubated with the enzyme for 15 min at 37 °C, afterwards the substrate was added and the velocities of AMC release were measured kinetically at λex = 380 nm, λem = 465 nm for at least 10 min at 37 °C. The Infinite 200 (Tecan Group Ltd.) micro-titer plate reader and the Magellan software were used for measurement and data processing respectively.
(§3) The data were fitted using a non-linear fit model in GraFit 7 software, according to the following equation: y=range/1+x/IC50^s where y is the value of the residual enzymatic activity compared to a non-inhibited sample, x is the final inhibitor concentration in the assay, s is the slope factor and the IC50 is the half maximal inhibitory concentration.

[6] = target: T2, Human recombinant PREP (Homo sapiens, UniProt P48147); experiment: PREP inhibition assay (IC50, N-succinyl-Gly-Pro-AMC substrate); type: biochemical; conditions: N-succinyl-Gly-Pro-AMC 250 μM, pH 7.4, 15 min pre-incubation at 37 °C
T2 sequence (P48147 1-710): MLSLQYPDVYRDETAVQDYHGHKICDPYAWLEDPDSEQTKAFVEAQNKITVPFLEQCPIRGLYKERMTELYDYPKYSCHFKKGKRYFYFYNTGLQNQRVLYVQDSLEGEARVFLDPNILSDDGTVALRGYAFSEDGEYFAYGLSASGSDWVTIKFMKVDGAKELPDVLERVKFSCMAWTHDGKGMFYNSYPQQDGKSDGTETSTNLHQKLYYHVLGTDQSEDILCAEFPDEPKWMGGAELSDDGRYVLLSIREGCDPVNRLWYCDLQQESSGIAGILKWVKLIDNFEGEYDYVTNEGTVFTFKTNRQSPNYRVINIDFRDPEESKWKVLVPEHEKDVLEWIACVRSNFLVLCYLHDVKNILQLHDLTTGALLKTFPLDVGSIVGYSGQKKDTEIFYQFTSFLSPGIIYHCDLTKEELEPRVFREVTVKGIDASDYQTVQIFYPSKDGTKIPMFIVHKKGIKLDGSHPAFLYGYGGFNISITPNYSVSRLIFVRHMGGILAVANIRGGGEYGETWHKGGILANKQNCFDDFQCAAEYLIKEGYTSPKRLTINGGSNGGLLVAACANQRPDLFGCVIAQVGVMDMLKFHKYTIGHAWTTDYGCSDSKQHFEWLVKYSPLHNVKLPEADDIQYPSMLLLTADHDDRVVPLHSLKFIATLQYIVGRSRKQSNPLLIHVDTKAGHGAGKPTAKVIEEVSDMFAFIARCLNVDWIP
Source text: as §1
as §2, with “concentration is” for “concentration was”, “any” for “any solvent”, “data processing,” for “data processing”
as §3

[7] = test system: FAP; set-up: method as in originally published value; conditions: different FAP substrate (Ala-Pro-pNA); ref originally published value; cited from earlier work
[8] = PANC-1 / MIA-PaCa-2, one value given

SMILES: N#C[C@@H]1CC(F)(F)CN1C(=O)CNC(=O)c1ccnc2ccc(OCCCN3CCN(C(=O)CN4CCN(CC(=O)[O-])CCN(CC(=O)[O-])CCN(CC(=O)[O-])CC4)CC3)cc12.[68Ga+3] [[^68Ga]Ga-FAPI-04]
SUVmean(60 min p.i.) Tumor [1]: 0.11 | SUVmean(60 min p.i.) Heart [2]: 0.16 | SUVmean(60 min p.i.) Kidney [2]: 0.33 | SUVmean(60 min p.i.) Liver [2]: 0.11 | SUVmean(60 min p.i.) Muscle [2]: 0.06 | SUVmean(60 min p.i.) Tumor [2]: 0.45 | SUVmean(60 min p.i.) Heart [3, 8]: 0.17 | SUVmean(60 min p.i.) Kidney [3, 8]: 0.36 | SUVmean(60 min p.i.) Liver [3, 8]: 0.67 | SUVmean(60 min p.i.) Muscle [3, 8]: 0.03 | SUVmean(60 min p.i.) Tumor ([3]; PANC-1 tumor model): 0.14

Stability in different media, intact conjugate [4]: more than 95% | IC50 ([5]; Z-Gly-Pro-AMC 50 μM, pH 8, 15 min pre-incubation at 37 °C): 0.9 ± 0.1 nM | Selectivity index (IC50 PREP / IC50 FAP) ([5]; ratio of the IC50 values for FAP and PREP): 6000 | IC50 [6]: 5400 ± 300 nM
SMILES: N#C[C@@H]1CC(F)(F)CN1C(=O)CNC(=O)c1ccnc2ccc(OCCCCNc3c(NCCNC(=O)CN4CCN(CC(=O)O)CCN(CC(=O)O)CCN(CC(=O)O)CC4)c(=O)c3=O)cc12 [DOTA.SA.FAPi, (S)-2,2′,2″-(10-(2-((2-((2-((4-((4-((2-(2-cyano-4,4-difluoropyrrolidin-1-yl)-2-oxo-ethyl)carbamoyl)quinolin-6-yl)oxy)butyl)amino)-3,4-dioxocyclobut-1-en-1-yl)amino)ethyl)amino)-2-oxoethyl)-1,4,7,10-tetraazacyclododecane-1,4,7-triyl) triacetic acid]
